Test results published in publication PMC9780108, “An intrinsically disordered antimicrobial peptide dendrimer from stereorandomized virtual screening” (Cell Reports. Physical Science, 2022).
≈ marks a conversion by molar mass, not a printed value. Read-outs that look alike come from different tables or passages of the source. Residues, ends and D or L forms follow the SMILES beside them.

Columns and labels:
HEK293 cell line = type: cell-based
Outline: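 HEK293 cells seeded at 2 × 10³/well, incubated 48 h at 37 °C with serially diluted compounds (stock 2 mg/mL) in DMEM with 10% FBS. AlamarBlue added at 10% final for 3–5 h; fluorescence ex 560/em 590 nm, normalized to untreated cells.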

P. aeruginosa PAO1 [1] = system: P. aeruginosa PAO1
[2] = system: S aureus COL (methicillin-resistant Staphylococcus aureus)
P. aeruginosa PAO1 [3] = test: PI cell permeabilization assay (flow cytometry); type: cell-based, Pseudomonas aeruginosa; conditions: PAO1 (OD600 = 1) incubated 20 min at 37°C, PI 5 µg/mL
Method: page 31: 12. Cell Membrane Permeability Assay Propidium iodide (PI) was used as the fluorescent dye to evaluate integrity of bacterial membranes. A single colony of Pseudomonas aeruginosa PAO1 was grown overnight with shaking (150 rpm) in LB-broth (5 mL) at 37 °C. 100 μL of the overnight culture was regrown in 10 mL LB-broth to the exponential phase OD600 1 (10^9 CFU/mL). Bacteria was washed with MH and then re-suspended to a working concentration of OD600 = 1. AMPDs and polymyxin B (stock solution 1 mg/mL) were added at different final concentrations ( 16, 32 and 64 μg/mL). Samples were incubated with shaking (150 rpm) at 37°C for 20 minutes before samples were centrifuged at 14 000 rpm for 3 min. Bacteria sample was washed twice with PBS and stained with PI 5 µg/mL in PBS with shaking (150 rpm) at 37°C for 20 minutes. Bacteria sample was washed 5 times with PBS and the fluorescence intensity of bacteria suspensions was observed and recorded on a ImageStream ® X Mark II Imaging Flow Cytometer with a 488 nm laser , bacteria cells wi th fluorescent intensity higher than 2 × 104 is defined as PI positive cells. Percentage of PI positive cells was calculated by IDEA S workstation . S30

P. aeruginosa PAO1 [4] = test: DiSC3(5) inner membrane depolarization assay; type: cell-based, Pseudomonas aeruginosa; conditions: PAO1 in HEPES buffer pH 7.4, 2 μM DiSC3(5), up to 64 μg/mL, read within 5 min
Method: page 29: 11. DiSC3(5) Membrane Depolarization Assay A single colony of Pseudomonas aeruginosa PAO1 was grown overnight with shaking (150 rpm) in LB-broth (5 mL) at 37 °C. 100 μL of the overnight culture was regrown in 10 mL LB- broth with shaking (200 rpm) to the exponential phase OD 600 = 1 (10^9 CFU/mL). Bacteria were washed once with HEPES buffer (5 mM HEPES, 5 mM glucose, pH 7.4) and diluted to OD 600 = 0.4. Stock solution of 10 mM of DiSC3(5) was prepared in DMSO. Stock solutions of 1 mg/mL of the compounds were prepared in sterilized milli-Q water and diluted to the beginning concentration of 128 μg/mL in 200 μL HEPES buffer containing […] the fluorescent probe DiSC3(5) 4 μM. The diluted samples were added to the first well of 96-well plates (black wells, flat bottom, BRAND® GmbH Wertheim, Germany) and diluted serially by 1/2. 100 μL of the bacterial suspension in HEPES buffer (without DiSC3(5)) were added to each well. In this case, the final OD of bacteria was 0.2, the final concentration of peptide in the first column is 64 μg/mL and DiSC3(5) 2 μM. The control wells are buffer containing DiSC3(5) and bacterial suspension containing DiSC3(5) in HEPES buffer. The plate was measured with a Tecan instrument Infinite M1000 within 5 min. The plate was enabled to shake for 5 sec before measurement. […]

human red blood cells = test: Hemolysis assay (MHC); conditions: Table 1; human red blood cells in PBS (pH 7.4), 4 h, visual inspection; two independent experiments in duplicate
[5] = Table 1, broth microdilution, Müller-Hinton medium pH 7.4, 16–20 h at 37°C, two independent experiments in duplicate
[6] = broth microdilution, Müller-Hinton medium pH 5.0, 16–20 h at 37°C, two independent experiments in duplicate
[7] = broth microdilution, Müller-Hinton medium pH 8.0, 16–20 h at 37°C, two independent experiments in duplicate
[8] = MH medium pH 7.4, 16–20 h at 37°C, two independent experiments in duplicate

Q: With `CC(C)C[C@H](NC(=O)[C@H](CCCCN)NC(=O)[C@H](CCCCN)NC(=O)[C@H](CCCCNC(=O)[C@H](CC(C)C)NC(=O)[C@H](CC(C)C)NC(=O)[C@H](CCCCN)NC(=O)[C@H](CCCCNC(=O)[C@H](CC(C)C)NC(=O)[C@H](CCCCN)NC(=O)[C@H](CCCCNC(=O)[C@H](CC(C)C)NC(=O)[C@@H](N)CCCCN)NC(=O)[C@H](CC(C)C)NC(=O)[C@@H](N)CCCCN)NC(=O)[C@H](CC(C)C)NC(=O)[C@H](CCCCN)NC(=O)[C@H](CCCCNC(=O)[C@H](CC(C)C)NC(=O)[C@@H](N)CCCCN)NC(=O)[C@H](CC(C)C)NC(=O)[C@@H](N)CCCCN)NC(=O)[C@H](CC(C)C)NC(=O)[C@H](CC(C)C)NC(=O)[C@H](CCCCN)NC(=O)[C@H](CCCCNC(=O)[C@H](CC(C)C)NC(=O)[C@H](CCCCN)NC(=O)[C@H](CCCCNC(=O)[C@H](CC(C)C)NC(=O)[C@@H](N)CCCCN)NC(=O)[C@H](CC(C)C)NC(=O)[C@@H](N)CCCCN)NC(=O)[C@H](CC(C)C)NC(=O)[C@H](CCCCN)NC(=O)[C@H](CCCCNC(=O)[C@H](CC(C)C)NC(=O)[C@@H](N)CCCCN)NC(=O)[C@H](CC(C)C)NC(=O)[C@@H](N)CCCCN)C(N)=O` [L-T7, reference compound] (HELM PEPTIDE1{K.L.K.K.L.K.K.L.L.K.K.K.L.[am]}|PEPTIDE2{K.L}|PEPTIDE3{K.L.K.K.L.K.K.L.L}|PEPTIDE4{K.L}|PEPTIDE5{K.L.K.K.L}|PEPTIDE6{K.L}|PEPTIDE7{K.L.K.K.L}|PEPTIDE8{K.L}$PEPTIDE1,PEPTIDE2,3:R3-2:R2|PEPTIDE3,PEPTIDE4,3:R3-2:R2|PEPTIDE5,PEPTIDE6,3:R3-2:R2|PEPTIDE7,PEPTIDE8,3:R3-2:R2|PEPTIDE1,PEPTIDE7,6:R3-5:R2|PEPTIDE1,PEPTIDE3,10:R3-9:R2|PEPTIDE3,PEPTIDE5,6:R3-5:R2$$$V2.0) as the compound, how does the “IC50 HEK293” value (HEK293 cell line; 48 h) read?
A: The value was 70 ± 6 µg/mL (≈ 14.3 µM).

Q: What about the “MIC at pH 5.0, E. coli W3110” value (E. coli W3110; W3110, pH 5) of the same compound?
A: The value was 16 μg/mL.

Q: And the “MIC at pH 7.4, E. coli W3110” value (E. coli W3110; W3110, pH 7.4)?
A: Its value is 4 μg/mL.

Q: And the “MIC at pH 8.0, E. coli W3110” value (E. coli W3110; W3110, pH 8)?
A: The value was 2 μg/mL.

Q: And the “MIC at pH 5.0, A. baumannii ATCC 19606” value (A. baumannii ATCC 19606; ATCC 19606, pH 5)?
A: Its value is 16 μg/mL.

Q: What about the “MIC at pH 7.4, A. baumannii ATCC 19606” value (A. baumannii ATCC 19606; ATCC 19606, pH 7.4) of the same compound?
A: The value was 8 μg/mL.

Q: What about the “MIC at pH 8.0, A. baumannii ATCC 19606” value (A. baumannii ATCC 19606; ATCC 19606, pH 8) of the same compound?
A: The value was 2–4 μg/mL.

Q: What about the “MIC at pH 5.0, P. aeruginosa PAO1” value (P. aeruginosa PAO1 [1]; PAO1, pH 5) of the same compound?
A: The value was 16 μg/mL.

Q: What about the “MIC at pH 7.4, P. aeruginosa PAO1” value (P. aeruginosa PAO1 [1]; PAO1, pH 7.4) of the same compound?
A: Its value is 8 μg/mL.

Q: What about the “MIC at pH 8.0, P. aeruginosa PAO1” value (P. aeruginosa PAO1 [1]; PAO1, pH 8) of the same compound?
A: The value was 2–4 μg/mL.

Q: What about the “MIC at pH 5.0, K. pneumoniae NCTC 418” value (K. pneumoniae NCTC 418; NCTC 418, pH 5) of the same compound?
A: The value was > 64 μg/mL.

Q: What about the “MIC at pH 7.4, K. pneumoniae NCTC 418” value (K. pneumoniae NCTC 418; NCTC 418, pH 7.4) of the same compound?
A: Its value is 32 μg/mL.

Q: What about the “MIC at pH 8.0, K. pneumoniae NCTC 418” value (K. pneumoniae NCTC 418; NCTC 418, pH 8) of the same compound?
A: The value was 8 μg/mL.

Q: What about the “MIC at pH 5.0, S aureus COL” value ([2]; COL (methicillin-resistant, pH 5)) of the same compound?
A: Its value is > 64 μg/mL.

Q: And the “MIC at pH 7.4, S aureus COL” value ([2]; COL (methicillin-resistant, pH 7.4))?
A: The value was > 64 μg/mL.

Q: And the “MIC at pH 8.0, S aureus COL” value ([2]; COL (methicillin-resistant, pH 8))?
A: The value was 4 μg/mL.

Q: What about the “MIC, S. maltophilia” value (S. maltophilia; pH 7.4) of the same compound?
A: Its value is 4 µg/mL (≈ 0.818 µM).

Q: And the “MIC, P. aeruginosa PA14” value (P. aeruginosa PA14; PA14, pH 7.4)?
A: The value was 8 µg/mL (≈ 1.64 µM).

Q: And the “MIC, P. aeruginosa ZEM-1A” value (P. aeruginosa ZEM-1A; ZEM-1A, pH 7.4)?
A: The value was 4 µg/mL (≈ 0.818 µM).

Q: What about the “MIC, E. cloacae” value (E. cloacae; pH 7.4) of the same compound?
A: Its value is 8 µg/mL (≈ 1.64 µM).

Q: And the “MIC, K. pneumoniae OXA-48” value (K. pneumoniae OXA-48; OXA-48, pH 7.4)?
A: Its value is 16 µg/mL (≈ 3.27 µM).

Q: And the “MIC, P. aeruginosa ZEM9A” value (P. aeruginosa ZEM9A; ZEM9A, pH 7.4)?
A: The value was 8 µg/mL (≈ 1.64 µM).

Q: And the “MIC, B. cenocepacia” value (B. cenocepacia; pH 7.4)?
A: The value was >64 µg/mL.

Q: And the “MIC, S. aureus Newman” value (S. aureus Newman; Newman, pH 7.4)?
A: Its value is >64 µg/mL.

Q: Which results are given for PMB nonapeptide [PMBN]?
A: Cell permeabilization (PI), percentage of PI-positive cells (P. aeruginosa PAO1 [3]; 16 μg/mL): 40%; Cell permeabilization (PI), percentage of PI-positive cells (P. aeruginosa PAO1 [3]; 32 μg/mL): 38%; Cell permeabilization (PI), percentage of PI-positive cells (P. aeruginosa PAO1 [3]; 64 μg/mL): 37%; Inner membrane depolarization (DiSC3(5) fluorescence), words (P. aeruginosa PAO1 [4]): no effect on inner membranes

Q: Which results are given for polymyxin B [PMB, reference compound]?
A: IC50 HEK293 (HEK293 cell line; HEK293 cell line, 48 h at 37°C, DMEM 10% FBS, AlamarBlue, mean ± SD, three independent experiments in triplicates): 346 ± 20 µg/mL; Cell permeabilization (PI), percentage of PI-positive cells (P. aeruginosa PAO1 [3]; 16 μg/mL): 96%; Cell permeabilization (PI), percentage of PI-positive cells (P. aeruginosa PAO1 [3]; 32 μg/mL): 94%; Cell permeabilization (PI), percentage of PI-positive cells (P. aeruginosa PAO1 [3]; 64 μg/mL): 96%; Inner membrane depolarization (DiSC3(5) fluorescence), words (P. aeruginosa PAO1 [4]): did not depolarize the inner membrane; MIC at pH 7.4, E. coli W3110 (E. coli W3110; [5]): 0.25 μg/mL; MIC at pH 5.0, E. coli W3110 (E. coli W3110; [6]): 0.02 μg/mL; MIC at pH 8.0, E. coli W3110 (E. coli W3110; [7]): 0.13 μg/mL; MIC at pH 7.4, A. baumannii ATCC 19606 (A. baumannii ATCC 19606; [5]): 0.25 μg/mL; MIC at pH 5.0, A. baumannii ATCC 19606 (A. baumannii ATCC 19606; [6]): 1 μg/mL; MIC at pH 8.0, A. baumannii ATCC 19606 (A. baumannii ATCC 19606; [7]): 0.25 μg/mL; MIC at pH 7.4, P. aeruginosa PAO1 (P. aeruginosa PAO1 [1]; [5]): 0.5 μg/mL; MIC at pH 5.0, P. aeruginosa PAO1 (P. aeruginosa PAO1 [1]; [6]): 0.03 μg/mL; MIC at pH 8.0, P. aeruginosa PAO1 (P. aeruginosa PAO1 [1]; [7]): 0.5 μg/mL; MIC at pH 7.4, K. pneumoniae NCTC 418 (K. pneumoniae NCTC 418; [5]): 0.25 μg/mL; MIC at pH 5.0, K. pneumoniae NCTC 418 (K. pneumoniae NCTC 418; [6]): 8 μg/mL; MIC at pH 8.0, K. pneumoniae NCTC 418 (K. pneumoniae NCTC 418; [7]): 0.25 μg/mL; MIC at pH 5.0, S aureus COL [2, 6]: > 64 μg/mL; MIC at pH 7.4, S aureus COL ([2]; broth microdilution, Müller-Hinton medium pH 7.4, 16–20 h at 37°C, two independent experiments in duplicate): > 64 μg/mL; MIC at pH 8.0, S aureus COL [2, 7]: 4 μg/mL; MIC, S. maltophilia (S. maltophilia; [8]): 4 µg/mL; MIC, P. aeruginosa PA14 (P. aeruginosa PA14; [8]): 0.5 µg/mL; MIC, P. aeruginosa ZEM-1A (P. aeruginosa ZEM-1A; MDR clinical isolate, MH medium pH 7.4, 16–20 h at 37°C, two independent experiments in duplicate): 0.5 µg/mL; MIC, E. cloacae (E. cloacae; [8]): 0.5 µg/mL; MIC, K. pneumoniae OXA-48 (K. pneumoniae OXA-48; carbapenem-resistant strain, MH medium pH 7.4, 16–20 h at 37°C, two independent experiments in duplicate): 1 µg/mL; MIC, P. aeruginosa ZEM9A (P. aeruginosa ZEM9A; clinical isolate, MH medium pH 7.4, 16–20 h at 37°C, two independent experiments in duplicate): 64 µg/mL; MIC, B. cenocepacia (B. cenocepacia; [8]): >64 µg/mL; MIC, S. aureus Newman (S. aureus Newman; [8]): >64 µg/mL; MHC (minimum hemolytic concentration) (human red blood cells): >2,000 μg/mL
